Marks after values point to notes of the source that are not given here. Strand notation (5' to 3'): a small letter for the sugar, then the base; units joined by * are phosphorothioate-linked, units joined directly phosphodiester-linked; [ ] holds rarer units or linkages, { } end groups; capitals alone tell only the bases. k = constrained ethyl (cEt); [5mC] = 5-methylcytosine; d = 2'-deoxy (DNA)
Legend:
[1] = rat, in vivo, sc, 50 mg/kg
Method: Male Sprague-Dawley rats were maintained on a 12-hour light/dark cycle and fed ad libitum with Purina normal rat chow. Groups of 4 Sprague-Dawley rats each were weekly injected subcutaneously with 50 mg/kg of Ionis oligonucleotide for 6 weeks (total 7 doses). Forty-eight hours after the last dose, the rats were euthanized; and organs, urine and plasma were harvested for further analysis.
To evaluate the effect of Ionis oligonucleotides on kidney function, urinary levels of total protein and creatinine were measured using an automated clinical chemistry analyzer (Hitachi Olympus AU400c, Melville, N.Y.).

Yap1 mRNA [2] = assay: Yap1 mRNA in BICR56 cells, RNA analysis (Example 33); assay type: cell-based, human; settings: free uptake, approximately 48 hours
Method: Modified oligonucleotides described in the studies above were tested at various doses in squamous cell carcinoma adherent keratinocyte cell line BICR56. A control oligonucleotide 792169 was also tested.
(§1) Cultured BICR56 cells at a density of 5000 cells per well were treated using free uptake with modified oligonucleotides diluted to concentrations described in the tables below. After approximately 48 hours, Yap1 mRNA levels were measured as previously described using the Human Yap1 primer-probe set RTS4814. Yap1 mRNA levels were normalized to actin-beta content, as measured by primer probe set RTS5002. Results are presented in the tables below as percent control of the amount of Yap1 mRNA relative to untreated control cells (% UTC).

SNU449 cells = assay: Cell proliferation assay in SNU449 cells in combination with sorafenib, CellTiter-Glo (Example 48); assay type: cell-based, human; settings: 144 hours
Method: Modified oligonucleotides described in the studies above were tested at various doses in hepatocellular carcinoma cell line SNU449. ION No. 792169, described herein above, was used as a control modified oligonucleotide. ION No. 715487 was used to target Yap1 RNA. […] After approximately 48 hours, Yap1 mRNA levels were measured.
144 hours post treatment, proliferation of SNU449 cells was measured using the luminescent cell viability CellTiter-Glo® 2.0 Assay (Promega). Results are presented in the tables below as percent control of the amount of luminescence in samples treated with modified oligonucleotides relative to untreated control cells (% UTC).

SCC-4 cells = assay: Cell proliferation assay in SCC-4 cells, CellTiter-Glo (Example 39); assay type: cell-based, human; settings: free uptake, approximately 144 hours
Method: (§2) Modified oligonucleotides described in the studies above were tested at various doses in tongue squamous cell carcinoma cell line SCC 4. A control oligonucleotide 792169, described herein above, was also tested.
(§3) Cultured SCC-4 cells at a density of 1000 cells/well were treated using free uptake with modified oligonucleotides diluted to concentrations described in the tables below. After approximately 144 hours, cell proliferation was measured using the luminescent cell viability CellTiter-Glo® 2.0 Assay (Promega). Results are presented in the tables below as percent control of the amount of luminescence in samples treated with modified oligonucleotides relative to untreated control cells (% UTC).

NCI H292 cells = assay: Cell proliferation assay in NCI H292 cells, CellTiter-Glo (Example 32); assay type: cell-based, human; settings: free uptake, approximately 144 hours
Method: Modified oligonucleotides described in the studies above were tested at various doses in mucoepidermoid pulmonary carcinoma cell line […]. A control oligonucleotide 792169 was also tested.
as §3, with “NCI H292” for “SCC-4”

Yap1 mRNA [3] = assay: Yap1 mRNA in SCC-4 cells, RNA analysis (Example 39); assay type: cell-based, human; settings: free uptake, approximately 48 hours
Method: as §2
as §1, with “SCC-4” for “BICR56”

Yap1 mRNA [4] = assay: Antisense inhibition of human Yap1 in A-431 cells by cEt gapmers, single dose (Example 4, RTS4814); assay type: cell-based
In short: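 Values are % UTC: Yap1 mRNA by quantitative RT-PCR, normalized to RIBOGREEN total RNA. Cells were exposed ~48 h to 2,000 nM oligonucleotide without transfection. Oligonucleotides were 16-nucleoside gapmers with three cEt nucleosides per wing, ten-deoxy gap, P=S linkages throughout.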

[5] = oligonucleotide at 0.04 uM, sorafenib 0 uM
[6] = oligonucleotide at 0.04 uM, sorafenib 0.37 uM
[7] = oligonucleotide at 0.04 uM, sorafenib 3.33 uM
[8] = oligonucleotide at 0.04 uM, sorafenib 10 uM
[9] = oligonucleotide at 0.04 uM, sorafenib […]
[10] = oligonucleotide at 0.2 uM, sorafenib 0 uM
[11] = oligonucleotide at 0.2 uM, sorafenib 0.37 uM
[12] = oligonucleotide at 0.2 uM, sorafenib 3.33 uM
[13] = oligonucleotide at 0.2 uM, sorafenib 10 uM
[14] = oligonucleotide at 0.2 uM, sorafenib […]
[15] = oligonucleotide at 1 uM, sorafenib 0 uM
[16] = oligonucleotide at 1 uM, sorafenib 0.37 uM
[17] = oligonucleotide at 1 uM, sorafenib 3.33 uM
[18] = oligonucleotide at 1 uM, sorafenib 10 uM
[19] = oligonucleotide at 1 uM, sorafenib […]
[20] = oligonucleotide at 5 uM, sorafenib 0 uM
[21] = oligonucleotide at 5 uM, sorafenib 0.37 uM
[22] = oligonucleotide at 5 uM, sorafenib 3.33 uM
[23] = oligonucleotide at 5 uM, sorafenib 10 uM
[24] = oligonucleotide at 5 uM, sorafenib […]

| Substance | URINE P/C ratio (total protein to creatinine ratio) [1] | human Yap1 mRNA expression (Yap1 mRNA [2]; 0.04 μM) [% UTC] | human Yap1 mRNA expression (Yap1 mRNA [2]; 0.2 μM) [% UTC] | human Yap1 mRNA expression (Yap1 mRNA [2]; 1 μM) [% UTC] | human Yap1 mRNA expression (Yap1 mRNA [2]; 5 μM) [% UTC] | Antiproliferative effect (cell proliferation, luminescence) (SNU449 cells; [5]) [% UTC] | Antiproliferative effect (cell proliferation, luminescence) (SNU449 cells; [6]) [% UTC] | Antiproliferative effect (cell proliferation, luminescence) (SNU449 cells; [7]) [% UTC] | Antiproliferative effect (cell proliferation, luminescence) (SCC-4 cells; 0.04 μM) [% UTC] | Antiproliferative effect (cell proliferation, luminescence) (SCC-4 cells; 0.2 μM) [% UTC] | Antiproliferative effect (cell proliferation, luminescence) (SCC-4 cells; 1 μM) [% UTC] | Antiproliferative effect (cell proliferation, luminescence) (SCC-4 cells; 5 μM) [% UTC] | Antiproliferative effect (cell proliferation, luminescence) (NCI H292 cells; 0.04 μM) [% UTC] | Antiproliferative effect (cell proliferation, luminescence) (NCI H292 cells; 0.2 μM) [% UTC] | Antiproliferative effect (cell proliferation, luminescence) (NCI H292 cells; 1 μM) [% UTC] | Antiproliferative effect (cell proliferation, luminescence) (NCI H292 cells; 5 μM) [% UTC] | human Yap1 mRNA expression (Yap1 mRNA [3]; 0.04 μM) [% UTC] | human Yap1 mRNA expression (Yap1 mRNA [3]; 0.2 μM) [% UTC] | human Yap1 mRNA expression (Yap1 mRNA [3]; 1 μM) [% UTC] | human Yap1 mRNA expression (Yap1 mRNA [3]; 5 μM) [% UTC] | also measured |
| --- | --- | --- | --- | --- | --- | --- | --- | --- | --- | --- | --- | --- | --- | --- | --- | --- | --- | --- | --- | --- | --- |
| 1198439 (AGTGTATGTCAGAAGA; sugar, 5-methylcytosine, phosphorothioate modifications, further chemistry not given here) [compound 1198439] | 8* |  |  |  |  |  |  |  |  |  |  |  |  |  |  |  |  |  |  |  |  |
| 715487 (kA*kT*kT*dA*d[5mC]*dT*dT*d[5mC]*dA*dT*dA*dG*d[5mC]*kT*kT*kA) [compound 715487] |  | 68 | 28 | 16 | 11 | 98 | 102 | 27 | 158 | 121 | 106 | 69 | 87 | 90 | 69 | 20 | 81 | 46 | 23 | 13 | Antiproliferative effect (cell proliferation, luminescence) (SNU449 cells; [8]): 2 % UTC; Antiproliferative effect (cell proliferation, luminescence) (SNU449 cells; [9]): 93 % UTC; Antiproliferative effect (cell proliferation, luminescence) (SNU449 cells; [10]): 93 % UTC; Antiproliferative effect (cell proliferation, luminescence) (SNU449 cells; [11]): 94 % UTC; Antiproliferative effect (cell proliferation, luminescence) (SNU449 cells; [12]): 12 % UTC; Antiproliferative effect (cell proliferation, luminescence) (SNU449 cells; [13]): 2 % UTC; Antiproliferative effect (cell proliferation, luminescence) (SNU449 cells; [14]): 77 % UTC; Antiproliferative effect (cell proliferation, luminescence) (SNU449 cells; [15]): 84 % UTC; Antiproliferative effect (cell proliferation, luminescence) (SNU449 cells; [16]): 83 % UTC; Antiproliferative effect (cell proliferation, luminescence) (SNU449 cells; [17]): 5 % UTC; Antiproliferative effect (cell proliferation, luminescence) (SNU449 cells; [18]): 1 % UTC; Antiproliferative effect (cell proliferation, luminescence) (SNU449 cells; [19]): 45 % UTC; Antiproliferative effect (cell proliferation, luminescence) (SNU449 cells; [20]): 64 % UTC; Antiproliferative effect (cell proliferation, luminescence) (SNU449 cells; [21]): 64 % UTC; Antiproliferative effect (cell proliferation, luminescence) (SNU449 cells; [22]): 3 % UTC; Antiproliferative effect (cell proliferation, luminescence) (SNU449 cells; [23]): 1 % UTC; Antiproliferative effect (cell proliferation, luminescence) (SNU449 cells; [24]): 23 % UTC |
| 958499 (ATTAGAGTATGTGGCA; 3-10-3 cEt gapmer, further chemistry not given here) [compound 958499] |  |  |  |  |  |  |  |  |  |  |  |  |  |  |  |  |  |  |  |  | YAP1 (% UTC) (Yap1 mRNA [4]; Yap1 mRNA remaining as percent of untreated control, 3-10-3 cEt gapmers, A-431 cells, Table 36): 1 % UTC; YAP1 (% UTC) (Yap1 mRNA [4]; Yap1 mRNA remaining as percent of untreated control, 3-10-3 cEt gapmers, A-431 cells, Table 37): 2 % UTC |
| 1198440 (AAGTGTATGTCAGAAG; cEt, 2'-MOE, 5-methylcytosine, phosphorothioate modifications, further chemistry not given here) [compound 1198440] | 9 | 40 | 10 | 7 | 7 |  |  |  | 82 | 60 | 21 | 11 | 100 | 83 | 30 | 15 | 63 | 27 | 11 | 5 |  |
| CGCCGATAAGGTACAC (cEt gapmer, phosphorothioate backbone, further chemistry not given here) [ION 792169, reference compound] |  | 99 | 92 | 85 | 97 | 99 | 103 | 51 | 125 | 169 | 142 | 136 | 98 | 97 | 99 | 92 | 92 | 106 | 105 | 104 | Antiproliferative effect (cell proliferation, luminescence) (SNU449 cells; [8]): 3 % UTC; Antiproliferative effect (cell proliferation, luminescence) (SNU449 cells; [9]): 97 % UTC; Antiproliferative effect (cell proliferation, luminescence) (SNU449 cells; [10]): 97 % UTC; Antiproliferative effect (cell proliferation, luminescence) (SNU449 cells; [11]): 100 % UTC; Antiproliferative effect (cell proliferation, luminescence) (SNU449 cells; [12]): 30 % UTC; Antiproliferative effect (cell proliferation, luminescence) (SNU449 cells; [13]): 4 % UTC; Antiproliferative effect (cell proliferation, luminescence) (SNU449 cells; [14]): 91 % UTC; Antiproliferative effect (cell proliferation, luminescence) (SNU449 cells; [15]): 97 % UTC; Antiproliferative effect (cell proliferation, luminescence) (SNU449 cells; [16]): 95 % UTC; Antiproliferative effect (cell proliferation, luminescence) (SNU449 cells; [17]): 27 % UTC; Antiproliferative effect (cell proliferation, luminescence) (SNU449 cells; [18]): 3 % UTC; Antiproliferative effect (cell proliferation, luminescence) (SNU449 cells; [19]): 89 % UTC; Antiproliferative effect (cell proliferation, luminescence) (SNU449 cells; [20]): 86 % UTC; Antiproliferative effect (cell proliferation, luminescence) (SNU449 cells; [21]): 84 % UTC; Antiproliferative effect (cell proliferation, luminescence) (SNU449 cells; [22]): 6 % UTC; Antiproliferative effect (cell proliferation, luminescence) (SNU449 cells; [23]): 1 % UTC; Antiproliferative effect (cell proliferation, luminescence) (SNU449 cells; [24]): 68 % UTC |
| 958499 (kA*kT*kT*dA*dG*dA*dG*dT*dA*dT*dG*dT*dG*kG*k[5mC]*kA) [Compound 958499] |  |  |  |  |  |  |  |  |  |  |  |  |  |  |  |  |  |  |  |  | YAP1 (% UTC) (Yap1 mRNA [4]; Table 14, A-431 cells, 5,000 cells per well, free uptake, 2,000 nM, approximately 48 hours, RTS4814, normalized to RIBOGREEN, Yap1 mRNA relative to untreated control, * = targets amplicon region of primer probe set): 2 % UTC; YAP1 (% UTC) (Yap1 mRNA [4]; Table 15, A-431 cells, 5,000 cells per well, free uptake, 2,000 nM, approximately 48 hours, RTS4814, normalized to RIBOGREEN, Yap1 mRNA relative to untreated control, * = targets amplicon region of primer probe set): 1 % UTC; YAP1 (% UTC) (Yap1 mRNA [4]; Table 16, A-431 cells, 5,000 cells per well, free uptake, 2,000 nM, approximately 48 hours, RTS4814, normalized to RIBOGREEN, Yap1 mRNA relative to untreated control cells): 2 % UTC; YAP1 (% UTC) (Yap1 mRNA [4]; Table 17, A-431 cells, 5,000 cells per well, free uptake, 2,000 nM, approximately 48 hours, RTS4814, normalized to RIBOGREEN, Yap1 mRNA relative to untreated control cells): 3 % UTC |

Source: patent US11214803B2, “Modulators of YAP1 expression” (Ionis Pharmaceuticals, Inc., priority 2019, dated 2022)
